The source of these data is patent publication EP4772509A1, “KINESIN KIF18A INHIBITOR, AND APPLICATION THEREOF” (Shanghai Apeiron Therapeutics Company Limited, priority 2023, dated 2025).

Molecules are shown by their SMILES.

Assay [1] concerns the target T1, Human KIF18A (amino acid sequence 1-417) (Homo sapiens, UniProt Q8NI77).
T1 construct: purchased Viva Biotech (Shanghai) Ltd
T1 sequence (Q8NI77 1-417): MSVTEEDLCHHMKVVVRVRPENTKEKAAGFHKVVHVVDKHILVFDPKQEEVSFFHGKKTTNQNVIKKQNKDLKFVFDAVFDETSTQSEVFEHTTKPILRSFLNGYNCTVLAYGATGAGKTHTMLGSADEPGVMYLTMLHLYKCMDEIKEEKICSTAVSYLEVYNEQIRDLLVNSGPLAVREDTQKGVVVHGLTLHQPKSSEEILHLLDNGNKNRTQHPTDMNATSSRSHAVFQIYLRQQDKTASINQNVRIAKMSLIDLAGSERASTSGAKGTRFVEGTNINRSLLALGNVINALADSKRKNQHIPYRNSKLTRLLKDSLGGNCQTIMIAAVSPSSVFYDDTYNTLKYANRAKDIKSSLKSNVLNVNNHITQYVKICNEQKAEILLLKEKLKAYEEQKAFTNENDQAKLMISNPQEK
Briefly: Enzymatic activity test (ADP-Glo, microtubule-stimulated ATPase). Type of assay: biochemical. Conditions: 60 µg/mL microtubules, 25 µM ATP, 2.5 nM KIF18A protein, 120 min at ambient temperature, chemiluminescence; read-out: KIF18A IC50. On the procedure:
Materials: Human KIF18A (amino acid sequence 1-417) was purchased from Viva Biotech (Shanghai) Ltd.; the ADP-Glo™ protein kinase kit was acquired from Promega, USA; tubulin was sourced from Cytoskeleton, USA; and the 384-well assay plate and Envision multifunctional microplate reader were obtained from PerkinElmer, USA.
Enzymatic Activity Test: The compound powder was dissolved in DMSO to prepare a stock solution of 10 mM. Then gradient dilution was performed for the compounds in the microplate to achieve a final concentration of 0-10 µM. Then, 2.5 µL each of tubulin, compound, ATP, and KIF18A protein were added to the microplate in sequence for reaction at ambient temperature for 120 min. The final concentrations in the enzyme reaction were 60 µg/mL for microtubules, 25 µM for ATP, and 2.5 nM for KIF18A protein. After the enzyme reaction, 10 µL of ADP-GLO reaction reagent was added to each well and incubated at room temperature for 30 min. After that, 20 µL of detection reagent was added to each well and incubated at room temperature for 30 min in the dark. Finally, chemiluminescence detection was performed using the PerkinElmer Envision.
For orientation: ADP-Glo first removes unused ATP, then detects ADP through luciferase.

The subject of assay [2] is OVCAR3 cells. Kind of assay: Cell proliferation activity test (CyQUANT Direct). It is filed as cell-based. The conditions noted are these: 3 days, 0.2% DMSO, CyQUANT fluorescence. On the procedure:
Materials and Cells: OVCAR3 cells were purchased from Nanjing Cobioer Biosciences Co., Ltd. RPMI-1640 medium, fetal bovine serum, and the CyQUANT Direct Cell Proliferation Assay kit were purchased from Thermo Fisher Scientific, USA; 96-well cell culture plates were sourced from Corning, USA.
Cell Culture: OVCAR3 cells were cultured with RPMI-1640 medium containing 10% fetal bovine serum and incubated in a 5% CO2 incubator at 37°C. Only cells in the logarithmic growth phase could be used for the test.
OVCAR3 cells were inoculated into a 96-well cell culture plate at 90 µL per well and incubated overnight in a 5% CO2 incubator at 37°C. The compound powder was dissolved in DMSO to prepare a stock solution of 10 mM. Then gradient dilution was performed for the compounds in the microplate to achieve a final concentration of 0-10 µM. 10 µL of cell culture medium containing compounds was added to each well to make the final DMSO content 0.2%. The cell plates were incubated in a 5% CO2 incubator at 37°C for 3 days. 100 µL of CyQUANT detection reagent was added to each well, reacted at 37°C for 60 min, and fluorescence detection was performed using the PerkinElmer Envision.

For `Cc1cc2nc(n1)C1CN(/C=C/CC3CCN(CC3)c3cc(NS(=O)(=O)CCO)ccc3-c3cn-2nn3)CCC1(F)F` (single isomer, unassigned) [Example 84D, N-((3^4Z,7E)-1^4,1^4-difluoro-2^6-methyl-3^1H-2(2,4)-pyrimidin-1(1,3),5(1,4)-dipiperidin-3(1,4)-triazole-4(1,2)-benzocyclooct-7-en-4^4-yl)-2-hydroxyethane-1-sulfonamide], the IC50 was 284 nM in assay [1] and more than 3000 nM in assay [2].

Regarding `Cc1cc2nc(n1)N1CCC(F)(F)C(/C=C\CC3CCN(CC3)c3cc(NS(=O)(=O)CCO)ccc3-c3cn-2nn3)C1` (single isomer, unassigned) [Example 84B, N-((3^4Z,7Z)-1^4,1^4-difluoro-2^6-methyl-3^1H-2(2,4)-pyrimidin-1(1,3),5(1,4)-dipiperidin-3(1,4)-triazole-4(1,2)-benzocyclooct-7-en-4^4-yl)-2-hydroxyethane-1-sulfonamide], the IC50 in assay [1] came out at 258 nM; in assay [2], 472 nM.

Take `Cc1cc2nc(n1)N1CCC(F)(F)C(/C=C/CCC3CCN(CC3)c3cc(NS(=O)(=O)CCO)ccc3-n3cc-2nn3)C1` (racemic) [Example 86, N-((3^4,8)-1^4,1^4-difluoro-2^6-methyl-3^1H-2(2,4)-pyrimidin-1(1,3),5(1,4)-dipiperidin-3(4,1)-triazole-4(1,2)-benzoazacyclononane-8-en-44-yl)-2-hydroxyethane-1-sulfonamide]: the IC50 in assay [1] was determined as 352 nM; in assay [2] (Homo sapiens, OVCAR-3, 72 h), 63 nM.

Turning to `Cc1cc2nc(n1)N1CCC(F)(F)C(/C=C\c3csc(c3)-c3cc(NS(=O)(=O)CCO)ccc3C(=O)N2)C1` (centres unmarked) [Example 67, N-(2^4,2^4-difluoro-1^6-methyl-7-oxo-8-aza-1(2,4)-pyrimidin-2(1,3)-piperidin-5(2,4)-thiophene-6(1,2)-benzeneheterocyclooct-3-en-6^5-yl)-2-hydroxyethane-1-sulfonamide], the IC50 in assay [1] stood at 86 nM; in assay [2] (Homo sapiens, OVCAR-3, 72 h), 481 nM.

Regarding `Cc1cc2nc(n1)C1CN(/C=C/CC3CCN(CC3)c3cc(NS(=O)(=O)CCO)ccc3-c3cn-2nn3)CCC1(F)F` (single isomer, unassigned) [Example 84C, N-((3^4Z,7E)-1^4,1^4-difluoro-2^6-methyl-3^1H-2(2,4)-pyrimidin-1(1,3),5(1,4)-dipiperidin-3(1,4)-triazole-4(1,2)-benzocyclooct-7-en-4^4-yl)-2-hydroxyethane-1-sulfonamide], the figures for the IC50 in assay [1] and in assay [2] were 186 nM and 38 nM, respectively.

For the compound `Cc1cc2nc(n1)N1CCC(F)(F)C(/C=C\CC3CCN(CC3)c3cc(NS(=O)(=O)CCO)ccc3-c3cn-2nn3)C1` (single isomer, unassigned) [Example 84A, N-((3^4Z,7Z)-1^4,1^4-difluoro-2^6-methyl-3^1H-2(2,4)-pyrimidin-1(1,3),5(1,4)-dipiperidin-3(1,4)-triazole-4(1,2)-benzocyclooct-7-en-4^4-yl)-2-hydroxyethane-1-sulfonamide], the results for the IC50 in assay [1] and in assay [2] were 309 nM and 26 nM, respectively.

With `Cc1cc2nc(n1)N1CCC(F)=C(/C=C\CC3CCN(CC3)c3cc(NS(=O)(=O)CCO)c4c(c3C(=O)N2)CCC4=O)C1` [Example 3, N-(1^4-fluoro-2^6-methyl-5^1,4-dioxo-11,1^2,1^3,1^6,5^2,5^3-hexahydro-5^1H-3-aza-^2(2,4)-pyrimidin-1(1,5)-pyridin-6(1,4)-piperidin-5(4,5)-indenoheterononane-8-en-5^7-yl)-2-hydroxyethane-1-sulfonamide], the IC50 in assay [1] was found to be 566 nM; in assay [2] (Homo sapiens, OVCAR-3, 72 h), 1130 nM.

As a reminder, the IC50 is the concentration that inhibits the measured activity by half.
